Data taken from the supplement of paper PMC10307832.

Columns and labels:
Experiment in all cases: relative viability (nuclei count vs DMSO), 5 days (fraction); higher = more cells survive
Crenolanib + Pemetrexed = compound: CC1(COc2ccc3c(c2)ncn3-c2ccc3cccc(N4CCC(N)CC4)c3n2)COC1 [Crenolanib] + Nc1nc2[nH]cc(CCc3ccc(C(=O)N[C@@H](CCC(=O)O)C(=O)O)cc3)c2c(=O)[nH]1 [Pemetrexed] (partner 0.2 µM)
How it was run: (§1)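 The day after seeding in 1536-well plates, lung cancer cell lines were treated by pin tool with a single drug, or with a fixed anchor-drug dose together with five library-drug doses (not always all listed) in √10 steps. After 5 days, a combined fix-and-stain solution (final 0.05% Triton X-100, 1% formaldehyde, 1 ug/ml Hoechst) was added. Nuclei counted on 4× images gave relative viability as treated counts over vehicle counts, reported as the median of duplicate plates.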

Crenolanib + Luminespib = compound: CC1(COc2ccc3c(c2)ncn3-c2ccc3cccc(N4CCC(N)CC4)c3n2)COC1 [Crenolanib] + CCNC(=O)c1noc(-c2cc(C(C)C)c(O)cc2O)c1-c1ccc(CN2CCOCC2)cc1 [Luminespib] (partner 0.01 µM)
How it was run: as §1

Crenolanib + Bortezomib = compound: CC1(COc2ccc3c(c2)ncn3-c2ccc3cccc(N4CCC(N)CC4)c3n2)COC1 [Crenolanib] + CC(C)C[C@H](NC(=O)[C@H](Cc1ccccc1)NC(=O)c1cnccn1)B(O)O [Bortezomib] (partner 0.002 µM)
How it was run: as §1

Tivantinib + Tozasertib = compound: O=C1NC(=O)[C@@H](c2cn3c4c(cccc24)CCC3)[C@@H]1c1c[nH]c2ccccc12 [Tivantinib] + Cc1cc(Nc2cc(N3CCN(C)CC3)nc(Sc3ccc(NC(=O)C4CC4)cc3)n2)n[nH]1 [Tozasertib] (partner 0.1 µM)
How it was run: as §1

Q: With UMC-11 as the cell line, how does the relative viability (Crenolanib + Pemetrexed; first compound 0.01 µM) read?
A: Its relative viability is 0.791.

Q: And the relative viability (Crenolanib + Pemetrexed; first compound 0.03162 µM)?
A: The relative viability was 0.755.

Q: And the relative viability (Crenolanib + Pemetrexed; first compound 0.1 µM)?
A: The relative viability was 0.738.

Q: What about the relative viability (Crenolanib + Pemetrexed; first compound 0.3162 µM) of the same cell line?
A: Its relative viability is 0.832.

Q: What about the relative viability (Crenolanib + Pemetrexed; first compound 1 µM) of the same cell line?
A: The relative viability was 0.741.

Q: What about the relative viability (Crenolanib + Luminespib; first compound 0.01 µM) of the same cell line?
A: The relative viability was 1.06.

Q: What about the relative viability (Crenolanib + Luminespib; first compound 0.03162 µM) of the same cell line?
A: Its relative viability is 1.02.

Q: What about the relative viability (Crenolanib + Luminespib; first compound 0.1 µM) of the same cell line?
A: Its relative viability is 1.02.

Q: And the relative viability (Crenolanib + Luminespib; first compound 0.3162 µM)?
A: Its relative viability is 1.11.

Q: What about the relative viability (Crenolanib + Luminespib; first compound 1 µM) of the same cell line?
A: Its relative viability is 1.07.

Q: And the relative viability (Crenolanib + Bortezomib; first compound 0.01 µM)?
A: The relative viability was 0.811.

Q: And the relative viability (Crenolanib + Bortezomib; first compound 0.03162 µM)?
A: Its relative viability is 0.753.

Q: What about the relative viability (Crenolanib + Bortezomib; first compound 0.1 µM) of the same cell line?
A: The relative viability was 0.703.

Q: What about the relative viability (Crenolanib + Bortezomib; first compound 0.3162 µM) of the same cell line?
A: Its relative viability is 0.752.

Q: What about the relative viability (Crenolanib + Bortezomib; first compound 1 µM) of the same cell line?
A: Its relative viability is 0.757.

Q: And the relative viability (Tivantinib + Tozasertib; first compound 0.01 µM)?
A: The relative viability was 0.202.

Q: And the relative viability (Tivantinib + Tozasertib; first compound 0.1 µM)?
A: Its relative viability is 0.178.

Q: And the relative viability (Tivantinib + Tozasertib; first compound 0.3162 µM)?
A: The relative viability was 0.188.
